Columns and labels:
[1] = system: β-mannosidase; test: inhibition of human liver β-mannosidase; format: biochemical
Text: (§1) The relative potencies of these compounds as fucosidase inhibitors may be understood by considering them as analogues of α-L-fucose; all three compounds have the correct chirality of the secondary hydroxyl groups--the minimum requirement for inhibition of α-fucosidase. […] All the compounds are weaker inhibitors of α-fucosidase than is deoxyfuconojirimycin, since they all lack a lipophilic methyl substituent with correct configuration.

[2] = system: α-mannosidases; settings: literature; cited from earlier work
[3] = system: human α-mannosidases; test: inhibition of human liver α-mannosidases (summary of lysosomal, Golgi II and neutral); format: biochemical; settings: for specificity and potency of inhibition of human α-mannosidases, HMJ compared with DMJ: HMJ (6) vs DMJ (5)
Text: as §1

[4] = target: T1, α-Fucosidase (Homo sapiens, UniProt P04066); test: % inhibition of human liver α-fucosidase catalysed hydrolysis; format: biochemical
T1 construct: from tissue; host or cells: human liver
T1 sequence (P04066 32-466): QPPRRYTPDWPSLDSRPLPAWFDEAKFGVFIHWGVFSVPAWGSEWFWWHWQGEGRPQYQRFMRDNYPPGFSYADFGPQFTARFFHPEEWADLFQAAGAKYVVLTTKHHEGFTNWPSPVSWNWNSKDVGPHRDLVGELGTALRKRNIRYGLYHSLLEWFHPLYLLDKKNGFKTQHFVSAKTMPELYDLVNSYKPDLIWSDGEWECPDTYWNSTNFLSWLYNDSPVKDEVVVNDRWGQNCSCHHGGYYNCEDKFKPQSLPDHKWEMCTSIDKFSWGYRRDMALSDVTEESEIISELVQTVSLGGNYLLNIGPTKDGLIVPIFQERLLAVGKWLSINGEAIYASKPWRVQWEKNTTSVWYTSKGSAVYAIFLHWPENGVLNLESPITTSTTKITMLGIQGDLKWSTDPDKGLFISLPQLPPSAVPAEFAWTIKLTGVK
Description: % Inhibition of human liver α-fucosidase and α-mannosidase
catalysed hydrolysis of 4-umbelliferyl pyrranosides at
1 mM concentration of inhibitor

[5] = system: α-glucosidase; settings: literature; cited from earlier work
[6] = system: human liver α-fucosidase; settings: literature; compared with deoxyfuconojirimycin (4); cited from earlier work

With OC[C@H]1NC[C@@H](O)[C@@H](O)[C@@H]1O [Deoxymannojirimycin (5), Deoxymannojirimycin] as the molecule, how does the “inhibition of β-mannosidase (in words)” value [1] read?
The value was “Neither compound inhibited β-mannosidase”.

What about the “inhibition of α-mannosidases in general (in words)” value [2] of the same molecule?
The value was “relatively weak inhibitor of α-mannosidases in general”.

What about the “specificity and potency of inhibition of human α-mannosidases, HMJ compared with DMJ” value [3] of the same molecule?
Its value is “very similar”.

What about the “inhibition of α-fucosidase (in words)” value [4] of the same molecule?
Its value is “powerful inhibitors of α-fucosidase”.

Which “α-glucosidase inhibition (in words)” value [5] does the source give for OC[C@H]1N[C@H](CO[C@@H]2O[C@H](CO)[C@@H](O)[C@H](O)[C@H]2O)[C@H](O)[C@@H](O)[C@@H]1O [β-glucopyranosyl derivative (2)] here?
The value was “powerful α-glucosidase inhibitor”.

Which results are given for OC[C@@H]1N[C@H](CO)[C@@H](O)[C@@H](O)[C@@H]1O [6-Epi-homomannojirimycin (8), 2,6-dideoxy-2,6-imino-L-glycero-D-talo-heptitol]?
inhibition of α-mannosidases (in words) [3]: did not inhibit any α-mannosidase; inhibition of α-fucosidase (in words) [4]: powerful inhibitors of α-fucosidase

For C[C@@H]1N[C@H](CO)[C@@H](O)[C@H](O)[C@@H]1O [homofuconojirimycin (3), homofuconojirimycin], which “inhibition of human liver α-fucosidase relative to deoxyfuconojirimycin (4)” value [6] is on record?
Its value is “as powerful an inhibitor of human liver α-fucosidase as is deoxyfuconojirimycin (4)”.

Which “inhibition of β-mannosidase (in words)” value [1] does the source give for OC[C@H]1N[C@H](CO)[C@@H](O)C(O)[C@@H]1O (stereo partly drawn) [Homomannojirimycin (6), 2,6-dideoxy-2,6-imino-D-glycero-D-talo-heptitol] here?
Its value is “Neither compound inhibited β-mannosidase”.

And the “specificity and potency of inhibition of human α-mannosidases, HMJ compared with DMJ” value [3]?
The value was “very similar”.

And the “inhibition of α-fucosidase (in words)” value [4]?
The value was “only a weak inhibitor of this enzyme”.

— patent publication US5101027A, “Synthesis of mannojirimycin derivatives” (Monsanto Company, priority 1990, dated 1992)
